Data reported in US20210102200A1, “SMALL MOLECULE TARGETED RECRUITMENT OF A NUCLEASE TO RNA” (The Scripps Research Institute, priority 2018, published 2021).

Experiments:
[1] = molecular target: T1, RNase L (Homo sapiens, UniProt Q05823); experiment: In vitro RNase L oligomerization, TGP-210-RL study; format: biochemical; conditions: in vitro cross-linking
T1 construct: GST; made in house
T1 sequence (Q05823 1-741): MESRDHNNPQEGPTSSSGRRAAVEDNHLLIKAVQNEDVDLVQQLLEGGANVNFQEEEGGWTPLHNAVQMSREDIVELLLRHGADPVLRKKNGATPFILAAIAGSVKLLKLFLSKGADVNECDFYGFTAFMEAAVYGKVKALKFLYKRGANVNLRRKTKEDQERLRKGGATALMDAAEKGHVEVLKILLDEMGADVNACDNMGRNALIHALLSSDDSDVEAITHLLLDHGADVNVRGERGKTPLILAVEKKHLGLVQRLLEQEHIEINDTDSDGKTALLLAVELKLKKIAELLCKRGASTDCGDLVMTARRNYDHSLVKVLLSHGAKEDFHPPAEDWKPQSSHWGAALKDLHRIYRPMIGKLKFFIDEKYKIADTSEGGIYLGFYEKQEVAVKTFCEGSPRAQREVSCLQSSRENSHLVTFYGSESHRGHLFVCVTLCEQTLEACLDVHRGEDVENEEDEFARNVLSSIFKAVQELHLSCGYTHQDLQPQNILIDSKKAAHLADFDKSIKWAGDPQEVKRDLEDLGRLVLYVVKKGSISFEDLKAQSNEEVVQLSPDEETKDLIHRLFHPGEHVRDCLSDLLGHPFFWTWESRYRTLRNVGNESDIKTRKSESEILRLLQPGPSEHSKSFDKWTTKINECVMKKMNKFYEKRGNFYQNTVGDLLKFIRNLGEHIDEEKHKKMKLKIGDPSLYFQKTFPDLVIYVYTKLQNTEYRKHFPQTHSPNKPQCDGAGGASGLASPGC
Method: An aliquot of RNase L (3 μM) in 1×RNase L Buffer was supplemented with 10 mM MgCl2, fresh 7 mM β-mercaptoethanol, and 50 μM of ATP. Dilutions of 2′-5′ A4, TGP-210, or TGP-210-RL were prepared in 1×RNase L Buffer supplemented with 10 mM MgCl2, fresh 7 mM β-mercaptoethanol, and 50 μM of ATP and added to the solution of RNase L in a total volume of 17.4 μL. The RNase L/compound solutions were incubated at room temperature for 5 min and then 1 μL of 44 mM dimethyl suberimidate (Thomas Scientific) in 0.4 M triethanolamine hydrochloride, pH 8.5, was added. After incubating at room temperature for 2 h, 3.6 μL of 6×Laemmli buffer (375 mM Tris-HCl, pH 6.8, 0.03% bromophenol blue, 0.6% β-mercaptoethanol, 12% SDS, 60% glycerol) was added. After heat denaturing the samples at 95° C. for 5 min, the samples were diluted 1:90 in 1×Laemmli buffer and then resolved by SDS-PAGE. After transferring to a PVDF membrane, the membrane was blocked in 1×TBST [1×TBS with 0.1% Tween-20 (v/v)] containing 5% nonfat milk for 1 h. […] After washing the membrane five times for 5 min each with 1×TBST, protein levels were quantified by chemiluminescence with SuperSignal West Pico Chemiluminescent Substrate (Pierce Biotechnology) per the manufacturer's protocol. RNase L bands associated with monomeric or oligomeric signals were quantified using ImageJ software (National Institutes of Health).

[2] = tested on: mature miR-210; experiment: Mature miR-210 levels in hypoxic MDA-MB-231 cells by RT-qPCR; format: cell-based
Method: MDA-MB-231 (HTB-26; ATCC) cells were cultured in Roswell Park Memorial Institute (RPM I) 1640 media with L-glutamine & 25 mM HEPES (Corning) supplemented with 10% fetal bovine serum (FBS) (Sigma) and 1×Penicillin Streptomycin Solution (Corning). Cells cultured in normoxia were maintained at 37° C. in ambient atmosphere (˜21% O2) with 5% CO2. Cells cultured in hypoxia were maintained at 37° C., <1% O2 in a nitrogen filled hypoxic chamber (Billups-Rothenberg, Inc.), and 5% CO2. Cells were directly purchased from ATCC, but were not authenticated.
For compound treatment (TGP-210, TGP-210-RL, LNA-210, Scr-LNA), compound stocks in DMSO or water were diluted in growth medium and added to cells for 24-48 h. […]
MDA-MB-231 cells were treated in normoxic or hypoxic conditions for 24-48 h, as described above in the Experimental Model and Subject Details section. […] RNA expression levels were determined using the ΔΔCt method and normalized using 18S ribosomal RNA or U6 small nuclear RNA as housekeeping genes. […] Upon treatment with chimeric compound TGP-210-RL, relative cleavage levels were calculated according to equation 1A (Eq. 1A) in order to control for the effect of parent compound TGP-210, on pre-miR-210 expression: […]

[3] = tested on: triple negative breast cancer; conditions: triple negative breast cancer mouse model; cited from earlier work

Substance: Targapremir-210 [TGP-210]
- Oligomerization of RNase L [1]: not
- Levels of mature miR-210 [2]: decreased
- Tumor growth [3]: inhibited tumor growth
